One experiment has as its system B16 mouse melanoma cells. As to the kind of experiment: Inhibition of pigment (melanin) production in B16 mouse melanoma cells. Format: cell-based. Particulars: 72 h, 3 days incubation, average of 4 wells, read-out: % of melanin inhibition in B16 mouse melanoma cells assay compared to control, normalised to protein levels. The text has this:
B16 mouse melanoma cells are widely available for example by purchase from the American Type Culture Collection (ATCC) and are routinely used by those skilled in the art to assay pigment production. The cells make and secrete melanin, a dark pigment, into the medium as the cells approach confluence. Methods for general cell culture may be easily accessed in text books and on-line (eg General Techniques of Cell Culture; M.A. Harrison and I.F. Rae Authors; Cambridge University Press ISBN 052157496X)
B16 mouse melanoma cells were maintained in cell culture and used for tests in antibiotic free Lonza Biowhittaker (BE12-662F) media (50ml fetal bovine serum and 5 ml I-glutamine (Sigma G7513) per 500 ml bottle).
The cells were maintained and grown at 37°C in an atmosphere of 5 % CO2. Trypsin/ethylene diamine tetraacetic acid (EDTA; Sigma T3924) and Dulbeccos Phosphate Buffered Saline (DPBS; Sigma D8537) were used to passage the cells as they approached ≥80 % confluence, diluting the cells by one tenth for maintenance culture.
For the pigment reduction assays, 48 well plates were seeded with 2.5 x 10^4 cells per well in phenol red-free, antibiotic-free medium (Sigma D1145) supplemented with foetal bovine serum and glutamine. Care was taken to make sure less adherent cells were not lost during the seeding process.
The plates were incubated overnight at 37°C/5 % CO2 atmosphere. The media was removed from the plates one-by-one and fresh media containing the test compound or control additions was added to each well. Compounds were prepared as stock solutions at 1000 fold higher concentration than that used for assay in dimethylsulphoxide (DMSO). Control media additions included 0.1 % DMSO, media alone and positive control(s) known to inhibit pigment production such as ketoconazole or 4-ethylresorcinol. The cells were incubated at 37°C/5 % CO2 atmosphere for a further 3 days. Cultures were assessed for melanin secretion into the medium and, as controls for toxicity of the added ingredients, for protein level and metabolic activity. A reduction in metabolic activity or protein levels is indicative of cell toxicity. The most desirable compounds therefore in the assay are those that show melanin production inhibition without loss of metabolic function or reduction in protein levels.
Media was removed from the cell plates and put into storage plates. The plates were sealed until assayed later in the day. Melanin was measured by determining optical density at 450 nm and making a comparison against melanin standards (Sigma M8631) made up anew on each day of testing. The standards used were 1000 µg/ml; 500 µg/ml; 250 µg/ml; 125 µg/ml; 62.5 µg/ml; 31.25 µg/ml; and 15.625 µg/ml.
Without delay, 100 µl of RIPA buffer (Sigma R0278) with protease inhibitor (Sigma S8830- use as per Sigma instructions) was added to the wells and the plates frozen at -20°C until the protein assessment was carried out. For example Pierce BCA Protein Assay (Thermo Scientific # 23225) can be used as per manufacturer's instructions with 10 µl of sample for each replicate.
Control and test melanin values were calculated as the average of results from 4 wells, corrected for protein levels in the cultures. The percent reduction in melanin production was calculated for each compound concentration, setting the melanin production of control incubations (vehicle alone) at 100%. Compound concentrations causing > 20% loss of WST activity are considered toxic and not considered to be effective melanin inhibitors. A compound causing > 10% reduction of melanin production into the medium was considered to be an inhibitor. Table 1: B16 mouse melanoma cells assay results for compounds of the first aspect of the invention

Another experiment deals with Melanoderms™. As to the kind of experiment: Pigment production by Living Skin Equivalents (Melanoderms). Format: cell-based. To be noted: Homo sapiens, 336 h, 14 days, normalized to protein levels, read-out: Inhibition of melanin production (%) in Melanoderms™ compared to control. The text has this:
So called reconstructed pigmented 'skin' cultures containing keratinocytes and melanocytes are commercially available and for example can be purchased from MatTek Corp, 200, Homer Avenue, Ashland, MA, USA, under the trade name Melanoderm™. Melanoderms™ (catalogue reference MEL-300) containing melanocytes from […] donor skin were maintained in EPI-100-NMM113 media following the manufacturer's instructions and using standard methods for the maintenance of cultured mammalian cells under aseptic conditions. The Melanoderm™ cultures were treated with test agents for a total of 14 days. During the 14 day culture period the melanocytes in the Melanoderm™ cultures synthesise melanin in specialised vesicular structures called melanosomes. The pigmented melanosomes are transferred to the adjacent keratinocytes and the transferred-melanosomes tend to accumulate over the nucleus of the keratinocytes. This process is the same as occurs in skin in vivo and accordingly the Melanoderm™ culture is considered to be a very good test 'skin tissue' to mimic the effect of the skin pigmentation process in vivo. A compound that leads to a reduction in melanin production in the Melanoderm™ culture over 14 days by 10 % or more is considered to have a positive pigment reducing effect. It is important that the reduction in pigment occurs without substantive loss of cell viability such that the inhibitory effect of the test compound is due to its biological function rather than due to cell toxicity.
Culture media changes and re-dosing of compounds at selected concentrations took place every 2 or 3 days during the test period. Melanoderm™ cultures were also treated with control materials including the vehicle (dimethylsulphoxide; DMSO) used to dissolve the test material and a positive control material known to lead to the synthesis of reduced amounts of melanin in the cultures. Ketoconazole and/or 4-ethylresorcinol were used as positive controls. After 14 days culture, transmitted-light microscopy images were captured for every culture using a Leica DM IL microscope at x20 magnification.
The cell viability of the cultures was assessed using the so called WST-1 (Water Soluble Tetrazolium Salt -1) assay purchased from Roche Applied Science and following the manufacturer's instructions. The stable tetrazolium salt WST-1 is cleaved to a soluble formazan dye by a complex cellular mechanism that occurs primarily at the cell surface. This bioreduction is largely dependent on the glycolytic production of NADPH in viable cells. Therefore, the amount of soluble formazan dye formed in the culture medium directly correlates to the number of metabolically active cells in the culture. Cultures were incubated with WST-1 in the medium for 1 hour and production of formazan measured at 450 nm using a spectrophotometer plate reader, eg a BMG Labtech FLUOstar plate reader. Cultures were considered 'viable' if they generated greater than 80 % of the control value of formazan product. Subsequently the culture was washed briefly in phosphate buffer solution (PBS) and total melanin and protein extracted together from each culture using 250 µl Solvable (trademark, Perkin Elmer product 6NE9100) reagent at 60°C overnight as recommended by the manufacturer. The total protein content using a sample of the extracts was determined using the so called BCA (bicinchoninic acid) assay. The BCA assay may be purchased from Pierce Chemical Company and conducted following the manufacturer's instructions. Melanin was determined by measuring the absorbance at 485 nm, for example using a BMG Labtech FLUOstar plate reader. The amount of melanin extracted from each culture was determined by reference to a standard synthetic-melanin curve (Sigma Aldrich Chemical Co; catalogue reference M8631).
Melanin levels in each culture were expressed as values normalised to the amount of protein in the cultures and compared to control vehicle treated cultures. […]

A word on the inhibition: it is the share of the control response that was lost under treatment.

In the case of `N/C(=N\N=C\c1ccc(-c2ccncc2)cc1)NCc1ccc(O)cc1` [NC-0498, (E)-1-amino-N-(4-hydroxybenzyl)-1-{(2E)-[4-(pyridin-4-yl)benzylidene]hydrazinylidene}methanaminium iodide], in the experiment with B16 mouse melanoma cells, the inhibition at 1 µM amounted to 0% and the inhibition at 5 µM is 33%. The inhibition at 10 µM in the experiment on Melanoderms™ was determined as 53%.

Turning to `COC(=O)c1ccc(CN/C(N)=N/N=C/c2csc3ccccc23)cc1` [NC-0510, (E)-1-amino-1-[(2E)-(1-benzothiophen-3-ylmethylidene)hydrazinylidene]-N-[4-(methoxycarbonyl)benzyl]methanaminium iodide], in the experiment with B16 mouse melanoma cells, the inhibition at 1 µM worked out at 17% and the inhibition at 5 µM amounted to 29%. Besides, in the experiment on Melanoderms™, the inhibition at 5 µM stood at 18% and the inhibition at 10 µM worked out at 19%.

As for `COC(=O)c1ccc(CN/C(N)=N/N=C/c2ccc3ccccc3n2)cc1` [NC-0511, (E)-1-amino-N-[4-(methoxycarbonyl)benzyl]-1-[(2E)-(quinolin-2-ylmethylidene)hydrazinylidene]methanaminium iodide], in the experiment on B16 mouse melanoma cells, the inhibition at 1 µM came to 54% and the inhibition at 5 µM came to 100%. In the experiment with Melanoderms™, the inhibition at 5 µM came to 27% and the inhibition at 10 µM was 19%.

For `N/C(=N\N=C\c1csc2ccccc12)NCc1ccc(Cl)c(Cl)c1` [NC-0515, (E)-1-amino-1-[(2E)-(1-benzothiophen-3-ylmethylidene)hydrazinylidene]-N-(3,4-dichlorobenzyl)methanaminium iodide], in the experiment on B16 mouse melanoma cells, the inhibition at 1 µM was 0% and the inhibition at 5 µM came out at 54%.

Turning to `N/C(=N\N=C\c1csc2ccccc12)NCc1ccc(F)cc1` [NC-0517, (E)-1-amino-1-[(2E)-(1-benzothiophen-3-ylmethylidene)hydrazinylidene]-N-(4-fluorobenzyl)methanaminium iodide], in the experiment with B16 mouse melanoma cells, the inhibition at 1 µM worked out at 32% and the inhibition at 5 µM is 35%. Moreover, in the experiment on Melanoderms™, the inhibition at 5 µM was 4% and the inhibition at 10 µM was found to be 20%.

For the compound `N/C(=N\N=C\c1cc2ccccc2o1)NCc1ccccc1` [NC-0519, (E)-1-amino-1-[(2E)-(1-benzofuran-2-ylmethylidene)hydrazinylidene]-N-benzylmethanaminium iodide], in the experiment with B16 mouse melanoma cells, the inhibition at 1 µM came out at 71% and the inhibition at 5 µM was found to be 71%. In the experiment on Melanoderms™, the inhibition at 5 µM is 40% and the inhibition at 10 µM was found to be 47%.

For `COC(=O)c1ccc(CN/C(N)=N/N=C/c2cc3ccccc3o2)cc1` [NC-0521, (E)-1-amino-1-[(2E)-(1-benzofuran-2-ylmethylidene)hydrazinylidene]-N-[4-(methoxycarbonyl)benzyl]methanaminium iodide], in the experiment on B16 mouse melanoma cells, the inhibition at 1 µM is 46% and the inhibition at 5 µM turned out to be 64%. Further, the inhibition at 5 µM in the experiment with Melanoderms™ is 35%.

Take `COC(=O)c1ccc(CN/C(N)=N/N=C/c2cc3ccccc3s2)cc1` [NC-0522, (E)-1-amino-1-[(2E)-(1-benzothiophen-2-ylmethylidene)hydrazinylidene]-N-[4-(methoxycarbonyl)benzyl]methanaminium iodide]: in the experiment with B16 mouse melanoma cells, the inhibition at 1 µM worked out at 59% and the inhibition at 5 µM is 53%. Moreover, in the experiment with Melanoderms™, the inhibition at 5 µM stood at 34% and the inhibition at 10 µM came to 31%.

For the compound `COC(=O)c1cccc(CN/C(N)=N/N=C/c2csc3ccccc23)c1` [NC-0525, (E)-1-amino-1-[(2E)-(1-benzothiophen-3-ylmethylidene)hydrazinylidene]-N-[3-(methoxycarbonyl)benzyl]methanaminium iodide], in the experiment on B16 mouse melanoma cells, the inhibition at 1 µM came to 18% and the inhibition at 5 µM stood at 100%.

Turning to `COc1ccc(CN/C(N)=N/N=C/c2csc3ccccc23)cc1` [NC-0528, (E)-1-amino-1-[(2E)-(1-benzothiophen-3-ylmethylidene)hydrazinylidene]-N-(4-methoxybenzyl)methanaminium iodide], in the experiment with B16 mouse melanoma cells, the inhibition at 1 µM came out at 3% and the inhibition at 5 µM turned out to be 73%.

On to `COc1ccc(CN/C(N)=N/N=C/c2cc3ccccc3o2)cc1` [NC-0531, (E)-1-amino-1-[(2E)-(1-benzofuran-2-ylmethylidene)hydrazinylidene]-N-(4-methoxybenzyl)methanaminium iodide], for which, in the experiment on B16 mouse melanoma cells, the inhibition at 1 µM amounted to 39% and the inhibition at 5 µM worked out at 39%. In the experiment on Melanoderms™, the inhibition at 5 µM was 35% and the inhibition at 10 µM was found to be 40%.

Take `Cc1ccc2[nH]c3c(c2c1)CCC/C3=N/N=C(\N)NCc1ccc(F)cc1` [NC-0536, (E)-1-amino-N-(4-fluorobenzyl)-1-{(2Z)-[6-methyl-2,3,4,9-tetrahydro-1H-carbazol-1-ylidene]hydrazinylidene}methanaminium iodide]: in the experiment with B16 mouse melanoma cells, the inhibition at 1 µM amounted to 24% and the inhibition at 5 µM was found to be 8%.

For the compound `Cc1ccc2[nH]c3c(c2c1)CCC/C3=N/N=C(\N)NCc1c(Cl)cccc1Cl` [NC-0537, (E)-1-amino-N-(2,6-dichlorobenzyl)-1-{(2Z)-[6-methyl-2,3,4,9-tetrahydro-1H-carbazol-1-ylidene]hydrazinylidene}methanaminium iodide], in the experiment on B16 mouse melanoma cells, the inhibition at 1 µM turned out to be 51% and the inhibition at 5 µM worked out at 37%.

The values above are taken from EP2746253A1, “Novel compounds with skin lightening properties” (Unilever PLC, priority 2012, dated 2014).
